The values below come from PMC7827406, “Structure–Activity Relationship (SAR) Study of Spautin-1 to Entail the Discovery of Novel NEK4 Inhibitors” (International Journal of Molecular Sciences, 2021).

Holding throughout (assay): biochemical
Holding throughout (parameters): Eurofins KinaseProfiler full panel at Km ATP, residual kinase activity (%) relative to DMSO

In one assay the target is TLK2(h) (Homo sapiens, UniProt Q86UE8). Put shortly: (§1)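 Radiometric kinase activity assays were run with ATP at Km and compounds at 10 µM, and remaining activity (%) was reported. A separate competitive binding screen measured DNA-tagged kinase displaced from immobilized active-site ligands by qPCR, giving percent kinase still bound at 10 µM compound in DMSO.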
The target of another assay is T1, HPK1(h) (Homo sapiens, UniProt Q92918).
T1 construct: gene MAP4K1
A digest of the protocol:
as §1

The target of a further assay is T2, TSSK3(h) (Homo sapiens, UniProt Q96PN8).
T2 sequence (Q96PN8 1-268): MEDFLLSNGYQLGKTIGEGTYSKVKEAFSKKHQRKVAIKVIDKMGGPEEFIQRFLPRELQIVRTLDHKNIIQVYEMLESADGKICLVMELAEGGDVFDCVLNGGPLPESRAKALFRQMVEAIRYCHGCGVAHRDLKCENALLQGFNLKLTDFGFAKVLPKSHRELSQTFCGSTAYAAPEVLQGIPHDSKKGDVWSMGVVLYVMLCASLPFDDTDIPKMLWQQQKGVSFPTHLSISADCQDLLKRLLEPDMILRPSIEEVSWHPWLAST
Put shortly: as §1

The target in another assay is T3, CaMKIIβ(h) (Homo sapiens, UniProt Q13554).
T3 construct: gene CAMK2B
A digest of the protocol: as §1

The target of another assay is CDK3/cyclinE(h) (Homo sapiens, UniProt Q00526). Put shortly:
as §1

A further assay has as its target T4, MSK2(h) (Homo sapiens, UniProt O75676).
T4 construct: gene RPS6KA4
A digest of the protocol: as §1

Another assay has as its target T5, LOK(h) (Homo sapiens, UniProt O94804).
T5 construct: gene STK10
A digest of the protocol: as §1

Another assay has as its target TGFBR2(h) (Homo sapiens, UniProt P37173). A digest of the protocol: as §1
The target of a further assay is T6, MYO3B(h) (Homo sapiens, UniProt Q8WXR4).
T6 sequence (Q8WXR4 1-1341): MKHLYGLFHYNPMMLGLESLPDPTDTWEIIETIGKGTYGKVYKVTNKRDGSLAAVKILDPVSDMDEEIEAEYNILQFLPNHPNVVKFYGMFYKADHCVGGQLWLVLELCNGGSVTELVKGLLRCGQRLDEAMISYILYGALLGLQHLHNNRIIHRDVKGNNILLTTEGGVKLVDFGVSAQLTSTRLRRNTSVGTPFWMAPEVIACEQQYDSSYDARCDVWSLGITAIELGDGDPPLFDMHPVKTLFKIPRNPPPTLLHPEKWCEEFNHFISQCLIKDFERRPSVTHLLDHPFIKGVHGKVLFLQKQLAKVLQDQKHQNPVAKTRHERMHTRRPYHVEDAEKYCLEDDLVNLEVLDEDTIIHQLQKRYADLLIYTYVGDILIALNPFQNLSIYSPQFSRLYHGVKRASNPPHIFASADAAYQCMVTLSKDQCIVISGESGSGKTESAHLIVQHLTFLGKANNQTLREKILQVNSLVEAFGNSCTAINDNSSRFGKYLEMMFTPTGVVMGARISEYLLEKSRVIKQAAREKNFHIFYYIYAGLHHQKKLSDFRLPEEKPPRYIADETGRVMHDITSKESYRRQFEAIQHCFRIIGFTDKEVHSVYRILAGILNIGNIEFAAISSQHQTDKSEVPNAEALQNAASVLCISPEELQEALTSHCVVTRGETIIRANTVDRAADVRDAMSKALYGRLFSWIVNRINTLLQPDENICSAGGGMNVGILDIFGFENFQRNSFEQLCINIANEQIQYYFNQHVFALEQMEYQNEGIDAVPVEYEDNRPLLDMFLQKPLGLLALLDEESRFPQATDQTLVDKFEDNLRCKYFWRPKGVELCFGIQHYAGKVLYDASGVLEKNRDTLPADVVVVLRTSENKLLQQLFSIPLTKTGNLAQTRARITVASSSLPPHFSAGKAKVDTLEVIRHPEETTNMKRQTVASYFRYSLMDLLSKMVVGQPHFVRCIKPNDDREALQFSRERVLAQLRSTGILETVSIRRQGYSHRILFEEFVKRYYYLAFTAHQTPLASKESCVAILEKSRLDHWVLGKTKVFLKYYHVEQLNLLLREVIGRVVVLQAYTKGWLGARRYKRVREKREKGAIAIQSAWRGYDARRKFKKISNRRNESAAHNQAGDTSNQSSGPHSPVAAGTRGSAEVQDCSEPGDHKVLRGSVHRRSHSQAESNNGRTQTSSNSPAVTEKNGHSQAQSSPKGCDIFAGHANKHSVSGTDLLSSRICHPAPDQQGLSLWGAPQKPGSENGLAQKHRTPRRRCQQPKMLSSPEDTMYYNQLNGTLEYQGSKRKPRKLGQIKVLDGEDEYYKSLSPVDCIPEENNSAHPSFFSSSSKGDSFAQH
Put shortly:
as §1

[1] abbreviates: read-out: Residual activity (%) Spautin-1 5aa.
[2] abbreviates: read-out: Residual activity (%) 5as.
[3] abbreviates: read-out: Residual activity (%) 5at.
[4] abbreviates: read-out: Residual activity (%) 5ay.

Like-named read-outs stand apart in the source and are kept apart here.

T3 sequence (Q13554 whole entry): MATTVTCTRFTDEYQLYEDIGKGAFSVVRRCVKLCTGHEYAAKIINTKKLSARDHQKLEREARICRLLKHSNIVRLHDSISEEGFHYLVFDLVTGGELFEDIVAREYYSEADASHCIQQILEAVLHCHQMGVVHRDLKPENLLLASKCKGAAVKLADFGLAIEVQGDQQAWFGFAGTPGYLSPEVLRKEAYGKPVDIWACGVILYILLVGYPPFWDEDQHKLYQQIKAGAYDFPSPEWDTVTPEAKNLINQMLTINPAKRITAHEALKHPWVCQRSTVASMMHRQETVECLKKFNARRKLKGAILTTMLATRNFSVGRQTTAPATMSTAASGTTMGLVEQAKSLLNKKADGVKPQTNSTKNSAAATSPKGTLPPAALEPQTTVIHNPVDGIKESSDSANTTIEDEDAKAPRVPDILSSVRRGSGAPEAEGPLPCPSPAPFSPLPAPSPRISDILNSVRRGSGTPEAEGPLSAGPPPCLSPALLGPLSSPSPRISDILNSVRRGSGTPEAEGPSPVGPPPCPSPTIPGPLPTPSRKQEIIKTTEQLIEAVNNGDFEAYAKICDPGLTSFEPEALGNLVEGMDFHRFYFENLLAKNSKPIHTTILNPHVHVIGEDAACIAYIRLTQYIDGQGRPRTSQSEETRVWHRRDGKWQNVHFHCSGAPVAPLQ
T4 sequence (O75676 whole entry): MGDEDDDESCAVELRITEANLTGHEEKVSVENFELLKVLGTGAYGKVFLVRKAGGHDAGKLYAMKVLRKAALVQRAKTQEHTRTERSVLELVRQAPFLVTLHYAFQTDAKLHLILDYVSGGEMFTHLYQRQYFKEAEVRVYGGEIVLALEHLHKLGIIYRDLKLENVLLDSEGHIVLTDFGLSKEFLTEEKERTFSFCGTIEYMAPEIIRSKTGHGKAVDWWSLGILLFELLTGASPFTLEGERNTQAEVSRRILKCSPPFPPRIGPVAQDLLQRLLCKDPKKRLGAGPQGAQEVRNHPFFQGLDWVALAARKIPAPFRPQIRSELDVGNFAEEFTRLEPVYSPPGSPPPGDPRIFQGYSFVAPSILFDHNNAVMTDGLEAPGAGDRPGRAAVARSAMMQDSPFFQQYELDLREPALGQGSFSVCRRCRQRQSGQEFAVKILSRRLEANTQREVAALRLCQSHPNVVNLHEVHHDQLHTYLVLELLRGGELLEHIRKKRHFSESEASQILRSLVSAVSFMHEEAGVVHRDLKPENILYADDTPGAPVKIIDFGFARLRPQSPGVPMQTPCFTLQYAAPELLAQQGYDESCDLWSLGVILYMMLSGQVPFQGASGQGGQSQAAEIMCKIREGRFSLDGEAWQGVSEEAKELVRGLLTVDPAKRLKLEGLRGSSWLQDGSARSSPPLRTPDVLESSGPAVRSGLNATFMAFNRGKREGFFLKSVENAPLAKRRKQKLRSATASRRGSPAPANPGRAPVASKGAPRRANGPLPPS
Sequence of TGFBR2(h) (P37173 whole entry): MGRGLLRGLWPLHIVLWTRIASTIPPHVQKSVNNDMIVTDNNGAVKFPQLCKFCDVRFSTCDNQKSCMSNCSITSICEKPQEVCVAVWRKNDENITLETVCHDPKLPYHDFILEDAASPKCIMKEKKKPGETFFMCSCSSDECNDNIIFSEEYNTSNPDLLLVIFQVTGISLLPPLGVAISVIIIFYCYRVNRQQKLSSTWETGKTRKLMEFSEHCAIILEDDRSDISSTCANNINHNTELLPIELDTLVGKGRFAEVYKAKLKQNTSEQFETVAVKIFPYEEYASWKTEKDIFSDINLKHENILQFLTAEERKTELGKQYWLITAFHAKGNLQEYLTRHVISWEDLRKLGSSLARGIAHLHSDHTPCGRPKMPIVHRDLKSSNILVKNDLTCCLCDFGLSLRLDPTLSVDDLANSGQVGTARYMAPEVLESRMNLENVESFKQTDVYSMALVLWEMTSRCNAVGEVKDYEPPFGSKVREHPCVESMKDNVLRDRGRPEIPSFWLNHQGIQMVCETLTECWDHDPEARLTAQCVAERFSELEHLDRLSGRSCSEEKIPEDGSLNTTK
Sequence of TLK2(h) (Q86UE8 whole entry): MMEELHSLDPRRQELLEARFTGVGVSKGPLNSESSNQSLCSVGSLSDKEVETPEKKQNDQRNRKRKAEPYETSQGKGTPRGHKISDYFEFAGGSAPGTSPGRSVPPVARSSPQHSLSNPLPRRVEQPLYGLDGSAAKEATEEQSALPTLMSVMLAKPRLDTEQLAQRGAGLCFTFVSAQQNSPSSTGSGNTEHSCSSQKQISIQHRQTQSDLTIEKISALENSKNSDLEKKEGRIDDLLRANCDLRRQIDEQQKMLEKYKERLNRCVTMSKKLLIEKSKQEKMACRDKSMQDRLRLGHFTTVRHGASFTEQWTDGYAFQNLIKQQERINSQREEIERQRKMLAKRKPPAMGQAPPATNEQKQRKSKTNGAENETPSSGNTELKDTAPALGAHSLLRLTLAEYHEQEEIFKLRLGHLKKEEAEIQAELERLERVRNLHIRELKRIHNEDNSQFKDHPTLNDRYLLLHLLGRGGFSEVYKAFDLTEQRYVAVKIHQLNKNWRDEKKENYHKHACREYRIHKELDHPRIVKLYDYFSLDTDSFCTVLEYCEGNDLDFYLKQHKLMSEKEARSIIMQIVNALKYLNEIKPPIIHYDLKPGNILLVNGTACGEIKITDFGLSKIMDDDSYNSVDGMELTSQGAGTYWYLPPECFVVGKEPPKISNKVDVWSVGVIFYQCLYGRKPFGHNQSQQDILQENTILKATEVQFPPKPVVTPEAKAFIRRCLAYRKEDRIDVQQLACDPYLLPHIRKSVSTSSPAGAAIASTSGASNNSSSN
T1 sequence (Q92918 whole entry): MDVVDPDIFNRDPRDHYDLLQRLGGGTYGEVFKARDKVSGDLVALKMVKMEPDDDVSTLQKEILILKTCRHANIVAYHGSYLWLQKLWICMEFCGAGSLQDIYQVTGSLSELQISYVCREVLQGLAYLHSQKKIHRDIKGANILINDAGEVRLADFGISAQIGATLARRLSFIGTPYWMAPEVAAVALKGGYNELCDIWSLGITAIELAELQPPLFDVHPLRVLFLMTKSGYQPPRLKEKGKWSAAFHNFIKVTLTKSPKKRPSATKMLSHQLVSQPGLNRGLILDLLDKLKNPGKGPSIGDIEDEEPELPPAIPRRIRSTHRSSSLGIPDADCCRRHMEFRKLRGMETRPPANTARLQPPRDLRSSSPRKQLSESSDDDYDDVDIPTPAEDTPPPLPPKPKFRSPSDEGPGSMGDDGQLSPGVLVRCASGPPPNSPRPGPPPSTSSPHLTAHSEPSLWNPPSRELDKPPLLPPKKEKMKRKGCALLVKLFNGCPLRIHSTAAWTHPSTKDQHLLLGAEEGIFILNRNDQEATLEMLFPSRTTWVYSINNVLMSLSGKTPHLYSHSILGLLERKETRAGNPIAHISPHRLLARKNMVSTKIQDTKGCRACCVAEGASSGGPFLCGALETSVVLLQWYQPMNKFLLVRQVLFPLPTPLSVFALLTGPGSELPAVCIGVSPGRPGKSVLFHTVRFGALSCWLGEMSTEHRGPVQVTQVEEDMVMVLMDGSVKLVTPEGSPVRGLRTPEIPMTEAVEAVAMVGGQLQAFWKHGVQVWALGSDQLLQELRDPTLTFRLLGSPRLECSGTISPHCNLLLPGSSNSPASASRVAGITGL
T5 sequence (O94804 whole entry): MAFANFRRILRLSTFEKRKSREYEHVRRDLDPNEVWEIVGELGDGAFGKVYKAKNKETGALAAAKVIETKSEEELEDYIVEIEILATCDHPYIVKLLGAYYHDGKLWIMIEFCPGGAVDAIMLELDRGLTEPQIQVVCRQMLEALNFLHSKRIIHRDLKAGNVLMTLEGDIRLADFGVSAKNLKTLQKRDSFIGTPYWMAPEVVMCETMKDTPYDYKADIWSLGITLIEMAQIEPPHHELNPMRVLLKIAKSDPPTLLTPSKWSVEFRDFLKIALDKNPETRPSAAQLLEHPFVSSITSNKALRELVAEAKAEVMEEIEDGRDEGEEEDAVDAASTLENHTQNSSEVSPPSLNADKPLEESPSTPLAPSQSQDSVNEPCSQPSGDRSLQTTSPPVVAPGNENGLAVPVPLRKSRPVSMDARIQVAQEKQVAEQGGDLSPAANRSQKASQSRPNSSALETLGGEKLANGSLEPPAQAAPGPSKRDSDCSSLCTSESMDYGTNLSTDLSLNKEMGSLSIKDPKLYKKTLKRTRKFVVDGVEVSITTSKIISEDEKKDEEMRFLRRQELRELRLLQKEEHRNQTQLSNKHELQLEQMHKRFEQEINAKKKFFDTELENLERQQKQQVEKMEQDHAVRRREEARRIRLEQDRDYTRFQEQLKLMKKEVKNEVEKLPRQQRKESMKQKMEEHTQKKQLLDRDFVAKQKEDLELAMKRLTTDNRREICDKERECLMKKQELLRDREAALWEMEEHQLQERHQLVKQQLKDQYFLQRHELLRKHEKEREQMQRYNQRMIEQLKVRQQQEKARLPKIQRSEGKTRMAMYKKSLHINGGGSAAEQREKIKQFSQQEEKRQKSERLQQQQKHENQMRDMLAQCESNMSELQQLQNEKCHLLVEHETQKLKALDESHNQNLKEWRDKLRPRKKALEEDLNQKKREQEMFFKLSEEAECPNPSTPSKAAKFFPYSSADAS

Regarding `Fc1ccc(CNc2ncnc3ccc(F)cc23)cc1` [5aa, 6-Fluoro-N-(4-fluorobenzyl)-4-Quinazolinamine], the remaining activity at 10 µM was 99% on TLK2(h) (setting [1]); 92% at HPK1(h) (setting [1]); 111% at TSSK3(h) (setting [1]); 81% on CaMKIIβ(h) (setting [1]); 93% at CDK3/cyclinE(h) (setting [1]); 91% at MSK2(h) (setting [1]). Also, the remaining activity at 10 µM was 91% at LOK(h) (setting [1]), 97% on TGFBR2(h) (setting [1]) and 89% at MYO3B(h) (setting [1]).
As for `Fc1ccc(CCNc2ncnc3ccc(F)cc23)cc1` [5as, 6-Fluoro-N-[2-(4-Fluorophenyl)Ethyl]-4-Quinazolinamine], the remaining activity at 10 µM at TLK2(h) (setting [2]) turned out to be 98%; at HPK1(h) (setting [2]), 98%; at TSSK3(h) (setting [2]), 97%; on CaMKIIβ(h) (setting [2]) it was 91%; on CDK3/cyclinE(h) (setting [2]) it was 105%; at MSK2(h) (setting [2]), 96%. The remaining activity at 10 µM at LOK(h) (setting [2]) came out at 81%; on TGFBR2(h) (setting [2]) it was 91%; on MYO3B(h) (setting [2]), 84%.
Turning to `Fc1ccc2ncnc(NCCc3ccc(Cl)cc3)c2c1` [5at, N-[2-(4-Chlorophenyl)Ethyl]-6-Fluoro-4-Quinazolinamine], the remaining activity at 10 µM turned out to be 103% on TLK2(h) (setting [3]); 96% on HPK1(h) (setting [3]); 95% at TSSK3(h) (setting [3]); 91% at CaMKIIβ(h) (setting [3]); 107% on CDK3/cyclinE(h) (setting [3]); 97% at MSK2(h) (setting [3]). The remaining activity at 10 µM at LOK(h) (setting [3]) is 87%; at TGFBR2(h) (setting [3]), 93%; at MYO3B(h) (setting [3]), 87%.
On to `COc1ccc2ncnc(Nc3cccc(F)c3)c2c1` [5ay, N-(3-Fluorophenyl)-6-Methoxy-4-Quinazolinamine], for which the remaining activity at 10 µM on TLK2(h) (setting [4]) was determined as 97%; at HPK1(h) (setting [4]), 92%; at TSSK3(h) (setting [4]), 104%; at CaMKIIβ(h) (setting [4]), 72%; at CDK3/cyclinE(h) (setting [4]), 101%; on MSK2(h) (setting [4]), 88%. The results for the remaining activity at 10 µM at LOK(h) (setting [4]), at TGFBR2(h) (setting [4]) and on MYO3B(h) (setting [4]) were 35%, 96% and 88%, respectively.
